Results: patent publication US8703751B2, “Androstenediol as an indicator for assessing estrogenicity” (The Regents of the University of California, priority 2009, dated 2014)
Entries after “also recorded” stand apart in the source; their conditions may differ.

Assays:
[1] = biological target: T1, estrogen-alpha receptor (Homo sapiens, UniProt P03372); test: cell-based estrogen receptor bioassay (BG1 cells, luciferase reporter under four estrogen-response elements) for estrogenicity; conditions: for inherent estrogenic bioactivity (estrogenicity): at physiological circulating concentrations, FIG. 5 dose-response curves
T1 construct: human ovarian carcinoma cells (BG1) that have been stably transfected with a luciferase reporter gene plasmid; endogenous in cells; host or cells: BG1 human ovarian carcinoma cells stably transfected with an ERE-luciferase reporter plasmid
Excerpt: The total estrogen receptor ligand load (ERLL) can be determined using any method known in the art. The ERLL provides an estimate of the combined biological potential of the estrogen-alpha receptor ligand load contained in the sample. […] Other cell lines can find use. […] The detectable signal of any reporter gene known in the art can be used, including without limitation luciferase and fluorescent proteins (e.g., green fluorescent protein, yellow fluorescent protein, blue fluorescent protein, red fluorescent protein, etc.). In the case where […] is used as the reporter gene, […] substrate is added to the culture and the luciferase activity induced by the standards and/or test sample are measured using a Luminometer.
This assay assesses the total estrogenic bioactivity contained in a serum sample. Thus and estimate of the combined biological potential of the estrogen-alpha receptor ligand load (ERLL) contained in the sample. Thus the bioactivity of a sample will be appropriately estimated. Briefly, human ovarian carcinoma cells (BG1) that have been stably transfected with a luciferase reporter gene plasmid under the regulation of four estrogen-response elements were used to measure total bioactive estrogens. BG1 cells were cultured in Alpha Minimum Essential Medium (Alpha-MEM) with 10% fetal bovine serum (FBS). When cells reached 80% confluence, cells were trypsinized (0.05% trypsin-EDTA) and well dispersed in phenol-red free Dulbecco's […] (DMEM) supplemented with 10% dextran charcoal treated FBS (DCC-FBS). Suspended cells (0.05 mL/well; density of 25,000 cells/0.05 mL) were added to 96-well tissue culture plates containing 0.15 mL/well of phenol-red free DMEM supplemented with 10% DCC-FBS. On each of the two subsequent days (Days 2 and 3), the media in each well was removed and replaced with 0.2 mL phenol-red free DMEM supplemented with 10% DCC-FBS. […] To compensate for any serum matrix effects, DCC-FBS was added to the E2 standard preparation at a proportion equal to that of the serum content of the sample preparation (5% v/v). Serum samples were diluted in DCC-FBS with a final serum content of 5% (v/v). Plates were then incubated for an additional 18 hours. Media was then removed and 0.1 mL cell lysis buffer added to each well and allowed to incubate for 20 minutes. Cell lysates (0.04 mL) were transferred to 96-well Microfluor II plates (Fisher Scientific, Santa Clara, Calif.). Luciferin substrate was injected into each well and the luciferase activity induced by the standards and/or test serum was measured by a Veritas Luminometer (Turner Biosystems, Sunnyvale, Calif., USA).
The third element for developing the concept was that of gaining additional insight into the innate properties of all of the adrenal steroids that were associated with the rise of DS during the menopausal transition. For these investigations newly developed in vitro bioassays were used to adjudicate the estrogenicity of all for adrenal steroids (i.e., T, A-dione, 5A-diol and DHEA).

[2] = cited from earlier work
[3] = local, intravaginal suppository; cited from earlier work
[4] = transdermal administration; 60-65 year old women; cited from earlier work
[5] = 25 mg oral dose for three months; from 0.32 ng/mL before (doubling); cited from earlier work
[6] = oral 50 mg/day for one year, women over 70 years old

T1 sequence (P03372 whole entry): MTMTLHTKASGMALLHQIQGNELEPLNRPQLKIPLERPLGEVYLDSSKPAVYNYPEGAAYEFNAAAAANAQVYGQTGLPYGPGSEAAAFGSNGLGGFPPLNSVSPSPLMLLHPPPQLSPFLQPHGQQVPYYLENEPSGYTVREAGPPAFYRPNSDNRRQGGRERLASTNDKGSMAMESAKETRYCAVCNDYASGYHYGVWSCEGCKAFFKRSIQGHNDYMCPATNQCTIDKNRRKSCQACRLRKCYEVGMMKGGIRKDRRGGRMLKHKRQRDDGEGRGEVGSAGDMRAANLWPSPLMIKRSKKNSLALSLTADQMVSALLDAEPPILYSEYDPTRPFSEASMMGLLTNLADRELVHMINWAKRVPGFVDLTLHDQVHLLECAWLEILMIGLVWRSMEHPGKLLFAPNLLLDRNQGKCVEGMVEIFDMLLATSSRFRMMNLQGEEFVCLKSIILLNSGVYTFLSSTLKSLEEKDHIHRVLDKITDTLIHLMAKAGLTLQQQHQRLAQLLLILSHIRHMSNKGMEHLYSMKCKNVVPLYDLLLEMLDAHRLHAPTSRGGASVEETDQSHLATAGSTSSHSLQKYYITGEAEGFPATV

With C[C@]12CC[C@H]3[C@@H](CCC4=CC(=O)CC[C@@]43C)[C@@H]1CC[C@@H]2O [T, testosterone] the “inherent estrogenic bioactivity (estrogenicity)” value (“inherent estrogenic bioactivity” for short) [1] was “only 5A-diol and estradiol had substantial inherent estrogenic bioactivity”.
In the case of C[C@]12CC[C@H]3[C@@H](CC=C4C[C@@H](O)CC[C@@]43C)[C@@H]1CC[C@@H]2O [5A-diol, (3-beta,17-beta)-Androst-5-ene-3,17-diol], the “estrogenic or not (discussion statement)” value [1] is reported as “is estrogenic”, the “inherent estrogenic bioactivity” value [1] is reported as “substantial inherent estrogenic bioactivity” and the “inherent estrogenic bioactivity” value ([1]; listed as androstenediol) is reported as “significant “estrogenicity” at physiological levels”.
For C[C@]12CCC(=O)C=C1CC[C@@H]1[C@@H]2CC[C@]2(C)C(=O)CC[C@@H]12 [A-dione, androstendione], the “inherent estrogenic bioactivity” value [1] was “only 5A-diol and estradiol had substantial inherent estrogenic bioactivity”.
For C[C@]12CC[C@H](O)CC1=CC[C@@H]1[C@@H]2CC[C@]2(C)C(=O)CC[C@@H]12 [DHEA, dehydroepiandrosterone], the “estrogenic or not (discussion statement)” value [1] is given as “not estrogenic”, the “inherent estrogenic bioactivity” value [1] is given as “only 5A-diol and estradiol had substantial inherent estrogenic bioactivity; also recorded: does not” and the “BMD and bone resorption” value ([2]; 50 mg daily oral, adults 55-85 years of age, in women but not men) is given as “only modest effect”. The muscle status ([2]; 50 mg/day oral, one year, men and women between 60 and 80 years of age) was “no positive effect”, the bone turnover [2, 6] was “modestly decrease” and the libido [2, 6] was “increase”. For the same compound, the skin hydration [2, 6] was “improve”, the age-related vaginal atrophy [3] was “highly efficient treatment” and the “change in circulating sex steroid concentrations” value [3] was “no significant change”. The “increase in circulating DS” value [4] was “five fold increase”, the “increase in circulating androstendiol glucuronides” value [4] was “less than a two and one-half fold increase” and the “circulating concentration of A-diol after treatment” value [5] was 0.66 ng/mL.
